Measured values published in PMC8659278, “Dianthiamides A–E, Proline-Containing Orbitides from Dianthus chinensis” (Molecules, 2021).
Like-named read-outs stand apart in the source and are kept apart here. Peptide text beside a SMILES is read from it.

Tested on: human non-small cell lung cancer A549 cells
Assay: MTT cytotoxicity assay, A549 cells
Type: cell-based
Procedure: Human non-small cell lung cancer A549 and human stomach adenocarcinoma MKN-28 cells were purchased from the American Type Culture Collection (ATCC; Manassas, VA, USA). […] Docetaxel was used as a positive control with an IC50 value of 0.08 μM on A549 cells.

Row | Structure (SMILES) | IC50 (Homo sapiens, A549, MTT assay, 5 × 10^3 cells/well, 48 h incubation, tested 5–200 µM, absorbance 540 nm, read-out: cytotoxic activity against A549 cell line, IC50) | IC50 (human, 48 h)
1 | CC(=O)O[C@@]12CO[C@@H]1C[C@H](O)[C@@]1(C)C(=O)[C@H](O)C3=C(C)[C@@H](OC(=O)[C@H](O)[C@@H](NC(=O)OC(C)(C)C)c4ccccc4)C[C@@](O)([C@@H](OC(=O)c4ccccc4)[C@H]21)C3(C)C [docetaxel] | 0.08 µM | –
2 | CC[C@H](C)[C@@H]1NC(=O)[C@@H]2CCCN2C(=O)[C@@H]2CCCN2C(=O)[C@H](CC(C)C)NC(=O)[C@H](Cc2ccccc2)NC(=O)CNC(=O)[C@H](CC(N)=O)NC1=O [dianthiamide A, cyclo-(Gly^1-L-Phe^2-L-Leu^3-L-trans-Proa^4-L-cis-Prob^5-L-Ile^6-L-Asn^7)] (cyclo(GFLPPIN)) | – | 47.9 µM
